The nature of data set [1]: Open dish study: constant influence of humidity on binary mixtures of losartan potassium form X. The format is physicochemical. To be noted: 5 days, 25° C., 60% relative humidity. The protocol:
Storage conditions: Open dish study—constant influence of humidity Testing mixtures are put into open petri dishes and stored in a thermostatically controlled chamber at a temperature of 25° C. (±2° C.) and 60% (±5%) relative humidity
(§1) Mixtures are tested for up to 5 days in open petri dishes and up to 4 and 9 days in vials, and the following parameters were analysed at intervals of a few days or until the occurrence of significant change: appearance, […], conversion of a polymorph form (detected using powder X-ray diffraction spectroscopy and expressed as the amount of crystalline or amorphous phase different from the starting polymorph).

Data set [2] can be described thus: Vial study: influence of humidity in a closed container on binary mixtures of losartan potassium form X. The class given is physicochemical. The protocol:
Storage conditions: Vial study—influence of humidity in a closed container (simulation of packaging)
Testing mixtures are put into vials, exposed to 60% humidity for 18 hours, then closed with rubber stoppers and stored in a thermostatically controlled chamber at temperature of 25° C. (±2° C.) and 60% (±5%) relative humidity.
as §1

The mark [3] stands for this setting: vial, 4 days, exposed to 60% humidity 18 hours, closed, 25° C., 60% relative humidity.
[4] abbreviates: vial, 9 days, exposed to 60% humidity 18 hours, closed, 25° C., 60% relative humidity.

For `CCCCc1nc(Cl)c(CO)n1Cc1ccc(-c2ccccc2-c2nnn[n-]2)cc1.[K+]` [Not stabilized API, potassium salt of losartan], the Appearance entry in data set [1] was “white slightly”; in data set [2] (Initial state) it was “white powder”; in data set [2] (setting [3]), “white slightly”; in data set [2] (setting [4]), “white slightly”. Moreover, the “Form conversion (amount of crystalline or amorphous phase different from the starting polymorph, XRPD)” value in data set [1] is reported as 10%; in data set [2] (Initial state) it was 0%; in data set [2] (setting [3]) it was 5%; in data set [2] (setting [4]) it was 100%. The values for the Loss on drying in data set [1], in data set [2] (Initial state) and in data set [2] (setting [3]) were 0.93%, 0.08% and 0.52%, respectively.
